This passage reports GI50 and TGI results from PubChem BioAssay (NCI).

The structures appear in SMILES notation.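 Tested at 5 concentrations; 48 h exposure; 96-well plates; endpoints linearly interpolated, else capped at highest concentration. GI50 marks 50% less growth. TGI: concentration producing complete growth inhibition.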 Bounds are passed on as bounds.

Test systems include HT29 colon; MCF7 breast; BT-549 breast; LOX IMVI melanoma; HOP-62 NSCLC; DU-145 prostate; RPMI-8226 leukemia; MDA-MB-231 breast; SK-MEL-2 melanoma; OVCAR-4 ovarian.
What all share (experiment): NCI anticancer screen, dose series, 48 h

Turning to `COc1cccc(OC(=O)c2ccc(C(F)(F)F)nc2Nc2c(C)cccc2Cl)c1`, the GI50 is 26.4 µM in the test with HT29 colon; 15.8 µM with MCF7 breast; 30.4 µM with BT-549 breast; 20 µM in the test with LOX IMVI melanoma; 25.9 µM in the test with HOP-62 NSCLC; 32.1 µM in the test on DU-145 prostate. Also, the GI50 in the test on RPMI-8226 leukemia is 35.8 µM; in the test with MDA-MB-231 breast, 12.9 µM; in the test with SK-MEL-2 melanoma, 19.4 µM; with OVCAR-4 ovarian, 13.8 µM. Also, the TGI in the test with HT29 colon was over 100 µM; with MCF7 breast, 81.2 µM; with BT-549 breast, over 100 µM; in the test on LOX IMVI melanoma, 64.8 µM; in the test on HOP-62 NSCLC, 82.3 µM; in the test on DU-145 prostate, over 100 µM. Besides, the TGI was over 100 µM in the test with RPMI-8226 leukemia, 42.5 µM in the test on MDA-MB-231 breast, 45.9 µM in the test with SK-MEL-2 melanoma and 30.9 µM in the test with OVCAR-4 ovarian.

Take `C=C1C(=O)O[C@H]2[C@H]1CC/C(Cn1cc(Cc3c[nH]c4ccccc34)nn1)=C\CC[C@@]1(C)O[C@@H]21`: the GI50 in the test on HT29 colon was 1.95 µM; in the test on MCF7 breast it was 1.5 µM; in the test with BT-549 breast it was 1.41 µM; with LOX IMVI melanoma it was 1.55 µM; with HOP-62 NSCLC it was 3.86 µM; in the test on DU-145 prostate it was 1.54 µM. For the same molecule, the GI50 is 2.11 µM with RPMI-8226 leukemia, 1.72 µM in the test on MDA-MB-231 breast, 1.98 µM in the test with SK-MEL-2 melanoma and 2.05 µM in the test with OVCAR-4 ovarian. Also, the TGI came to 3.72 µM in the test on HT29 colon; 3.34 µM in the test with MCF7 breast; 2.76 µM in the test on BT-549 breast; 3.03 µM with LOX IMVI melanoma; 14.9 µM in the test on HOP-62 NSCLC; 2.88 µM in the test on DU-145 prostate. The TGI in the test with RPMI-8226 leukemia was found to be 5.35 µM; in the test on MDA-MB-231 breast, 3.48 µM; in the test with SK-MEL-2 melanoma it was 3.95 µM; with OVCAR-4 ovarian, 5.61 µM.

With `c1ccc2cc(Cn3cc[n+](Cc4ccc5ccccc5c4)c3)ccc2c1`, the GI50 in the test with HT29 colon is 0.555 µM; in the test with MCF7 breast, 1.87 µM; with BT-549 breast it was 1.18 µM; in the test on LOX IMVI melanoma, 1.1 µM; in the test with HOP-62 NSCLC, 3.26 µM; in the test with DU-145 prostate, 2.83 µM. Moreover, the GI50 in the test on RPMI-8226 leukemia is 0.348 µM; in the test with MDA-MB-231 breast, 0.729 µM; in the test with SK-MEL-2 melanoma, 1.37 µM; with OVCAR-4 ovarian, 0.339 µM. For the same molecule, the TGI in the test on HT29 colon was determined as 5.74 µM; in the test on MCF7 breast, 10.5 µM; in the test on BT-549 breast, 3.15 µM; in the test with LOX IMVI melanoma it was 2.39 µM; with HOP-62 NSCLC, 17 µM; in the test on DU-145 prostate, 14.7 µM. Moreover, the TGI in the test on RPMI-8226 leukemia worked out at 1.97 µM; with MDA-MB-231 breast it was 2.53 µM; in the test on SK-MEL-2 melanoma, 4.35 µM; in the test on OVCAR-4 ovarian it was 2.97 µM.

In the case of `Cc1cc(C(=O)Nc2cc(Oc3ccc4nc(NC(=O)C5CC5)cn4n3)ccc2C)n(C)n1`, the GI50 is over 10 µM with HT29 colon; 6.41 µM in the test with MCF7 breast; 6.42 µM in the test with BT-549 breast; over 10 µM in the test with LOX IMVI melanoma; over 10 µM in the test with HOP-62 NSCLC; over 10 µM in the test on DU-145 prostate. The GI50 in the test on RPMI-8226 leukemia, in the test on MDA-MB-231 breast, with SK-MEL-2 melanoma and in the test with OVCAR-4 ovarian was over 10 µM in each case. In addition, the TGI in the test on HT29 colon, in the test on MCF7 breast, in the test with BT-549 breast, in the test with LOX IMVI melanoma, in the test on HOP-62 NSCLC and in the test on DU-145 prostate was over 10 µM each time. Besides, the TGI with RPMI-8226 leukemia, in the test with MDA-MB-231 breast, in the test with SK-MEL-2 melanoma and with OVCAR-4 ovarian was over 10 µM throughout.

With `CC(=Nc1ccccc1)C1=C(O)C(Cc2cccc(F)c2)NC1=O` (stereo not given), the GI50 with HT29 colon is 0.0372 µM; in the test with MCF7 breast, 0.0354 µM; in the test on BT-549 breast it was 0.173 µM; in the test on LOX IMVI melanoma it was 0.0667 µM; in the test on HOP-62 NSCLC it was 0.0557 µM; in the test with DU-145 prostate, 0.086 µM. The GI50 is 0.0525 µM with RPMI-8226 leukemia, 0.178 µM in the test with MDA-MB-231 breast, 0.0626 µM with SK-MEL-2 melanoma and 0.345 µM with OVCAR-4 ovarian. For the same molecule, the TGI in the test with HT29 colon is 13.4 µM; in the test with MCF7 breast it was over 100 µM; in the test with BT-549 breast it was over 100 µM; in the test on LOX IMVI melanoma it was over 100 µM; in the test on HOP-62 NSCLC, over 100 µM; with DU-145 prostate, 10.2 µM. For the same molecule, the TGI was over 100 µM in the test on RPMI-8226 leukemia, 1.93 µM in the test with MDA-MB-231 breast, over 100 µM in the test with SK-MEL-2 melanoma and over 100 µM with OVCAR-4 ovarian.

Take `COC12C=C/C(=C(/C(=O)OCCSc3ccnn3C)C(=O)CCCCCCCCC3(OC)C=C/C(=C(/C(=O)OCCSc4ccnn4C)C(=O)CCCCCCCC1)O3)O2`: the GI50 in the test with HT29 colon was 1.25 µM; with MCF7 breast, 0.927 µM; in the test on BT-549 breast it was 0.954 µM; with LOX IMVI melanoma it was 0.573 µM; with HOP-62 NSCLC it was 0.95 µM; with DU-145 prostate it was 1.31 µM. The GI50 with RPMI-8226 leukemia was 0.895 µM; in the test with MDA-MB-231 breast, 1.05 µM; with SK-MEL-2 melanoma, 0.928 µM; in the test with OVCAR-4 ovarian, 0.837 µM. The TGI in the test with HT29 colon is over 32.5 µM; in the test with MCF7 breast, 15.2 µM; with BT-549 breast, 2.83 µM; in the test with LOX IMVI melanoma it was 1.18 µM; in the test with HOP-62 NSCLC it was 2.81 µM; in the test with DU-145 prostate, over 32.5 µM. The TGI with RPMI-8226 leukemia turned out to be 2.65 µM; in the test on MDA-MB-231 breast, 3.06 µM; in the test on SK-MEL-2 melanoma, 2.8 µM; in the test with OVCAR-4 ovarian it was 2.5 µM.

Turning to `c1cc(CN2CCCNCCNCCCNCC2)ccc1CN1CCCNCCNCCCNCC1`, the GI50 in the test on HT29 colon, in the test on MCF7 breast, in the test with BT-549 breast, in the test on LOX IMVI melanoma, with HOP-62 NSCLC and with DU-145 prostate was over 100 µM in each case. For the same molecule, the GI50 with RPMI-8226 leukemia, in the test on MDA-MB-231 breast, in the test on SK-MEL-2 melanoma and in the test with OVCAR-4 ovarian was over 100 µM throughout. Moreover, the TGI in the test on HT29 colon, with MCF7 breast, in the test with BT-549 breast, with LOX IMVI melanoma, in the test with HOP-62 NSCLC and in the test with DU-145 prostate was over 100 µM in each case. For the same molecule, the TGI with RPMI-8226 leukemia, in the test with MDA-MB-231 breast, with SK-MEL-2 melanoma and with OVCAR-4 ovarian was over 100 µM each time.
